Here are results for 15 molecules from patent US12600717B2, “Tricyclic compounds as inhibitors of KRAS” (Incyte Corporation, priority 2021, dated 2026).

In one test the target is KRAS G12V (Homo sapiens, UniProt P01116, G12V). Kind of test: GDP-GTP exchange assay (bodipy-GDP/GppNHp, SOS1), KRAS G12V. It is filed as biochemical. As to conditions: bodipy-loaded KRAS G12V 2.5 nM, 3 hours incubation after adding GppNHp-SOS1; read-out: G12V_exchange IC50. Here is the method: (§1) The inhibitor potency of the exemplified compounds was determined in a fluorescence based guanine nucleotide exchange assay, which measures the exchange of bodipy-GDP (fluorescently labeled GDP) for GppNHp (Non-hydrolyzable GTP analog) to generate the active state of KRAS in the presence of SOS1 (guanine nucleotide exchange factor). Inhibitors were serially diluted in DMSO and a volume of 0.1 μL was transferred to the wells of a black low volume 384-well plate. 5 μL/well volume of bodipy-loaded KRAS G12D diluted to 2.5 nM in assay buffer (25 mM Hepes pH 7.5, 50 mM NaCl, 10 mM MgCl2 and 0.01% Brij-35) was added to the plate and pre-incubated with inhibitor for 4 hours at ambient temperature. Appropriate controls (enzyme with no inhibitor or with a G12D inhibitor) were included on the plate. The exchange was initiated by the addition of a 5 μL/well volume containing 1 mM GppNHp and 300 nM SOS1 in assay buffer. The 10 μL/well reaction concentration of the bodipy-loaded KRAS G12D, GppNHp, and SOS1 were 2.5 nM, 500 uM, and 150 nM, respectively. The reaction plates were incubated at ambient temperature for 2 hours, a time estimated for complete GDP-GTP exchange in the absence of inhibitor. For the KRAS G12V mutant, similar guanine nucleotide exchange assays were used with 2.5 nM as final concentration for the bodipy loaded KRAS proteins and 3 hours incubation after adding GppNHp-SOS1 mixture. A cyclic peptide described to selectively bind G12D mutant (Sakamoto et al., BBRC 484.3 (2017), 605-611) or internal compounds with confirmed binding were used as positive controls in the assay plates. Fluorescence intensities were measured on a PheraStar plate reader instrument (BMG Labtech) with excitation at 485 nm and emission at 520 nm.
(§2) Either GraphPad prism or Genedata Screener SmartFit was used to analyze the data. The IC50 values were derived by fitting the data to a four parameter logistic equation producing a sigmoidal dose-response curve with a variable Hill coefficient.
(§3) The symbol “†” indicates IC50≤100 nM, “††” indicates IC50>100 nM but ≤1 μM; and “†††” indicates IC50 is >1 μM but ≤5 μM, “††††” indicates IC50 is >5 μM but ≤10 μM. “NA” indicates IC50 not available.

For a further test, the system named is KRAS. Description: Inhibition of KRAS activity, assay not specified (at least one assay described herein). As to conditions: remark in the synthesis example, assay not named. An excerpt:
The invention will be described in greater detail by way of specific examples. The following examples are offered for illustrative purposes, and are not intended to limit the invention in any manner. Those of skill in the art will readily recognize a variety of non-critical parameters which can be changed or modified to yield essentially the same results.

Another test addresses KRAS G12D (Homo sapiens, UniProt P01116, G12D). Kind of test: GDP-GTP exchange assay (bodipy-GDP/GppNHp, SOS1), KRAS G12D. It is filed as biochemical. As to conditions: bodipy-loaded KRAS G12D 2.5 nM, 4 hours pre-incubation with inhibitor, 2 hours after GppNHp/SOS1; read-out: G12D_exchange IC50. On the procedure: as §1, §2, §3

As a reminder, the IC50 is the concentration that gives 50% inhibition.

Structures are written as SMILES.

Chain of KRAS G12V (P01116 1-188 isoform P01116-2 G12V): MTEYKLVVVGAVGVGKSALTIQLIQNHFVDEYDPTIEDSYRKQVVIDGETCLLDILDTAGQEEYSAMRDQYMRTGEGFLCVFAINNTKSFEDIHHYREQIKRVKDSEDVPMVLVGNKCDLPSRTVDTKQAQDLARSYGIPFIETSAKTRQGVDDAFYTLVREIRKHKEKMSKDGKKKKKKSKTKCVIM
Chain of KRAS G12D (P01116 1-188 isoform P01116-2 G12D): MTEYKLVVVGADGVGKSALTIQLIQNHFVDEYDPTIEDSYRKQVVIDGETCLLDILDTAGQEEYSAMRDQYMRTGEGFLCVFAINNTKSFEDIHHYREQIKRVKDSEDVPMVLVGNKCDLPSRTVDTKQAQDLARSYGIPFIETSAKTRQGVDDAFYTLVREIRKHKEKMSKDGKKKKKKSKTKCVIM

With `CCc1nc2c(-c3cc(C(=O)NC)ccc3F)nc3c(F)c(-c4cc(O)cc5ccccc45)c(CCC#N)cc3c2n1C1C2CNC1C2` (single isomer, unassigned) [Example 17a, 3-(1-((endo)-2-Azabicyclo[2.1.1]hexan-5-yl)-8-(2-cyanoethyl)-2-ethyl-6-fluoro-7-(3-hydroxynaphthalen-1-yl)-1H-imidazo[4,5-c]quinolin-4-yl)-4-fluoro-N-methylbenzamide], the IC50 at KRAS G12V and on KRAS G12D was at most 0.1 µM in each case. Also, in the test on KRAS, the “potency of isolated peak relative to the other diastereomer” value is “More potent peak”.
On to `CN(C)C1CN(c2nc3c(F)c(-c4cc(O)cc5ccccc45)c(CCC#N)cc3c3c2nc(CCc2ncccn2)n3C2C3CNC2C3)C1` (single isomer, unassigned) [Example 37, 3-(1-((endo)-2-azabicyclo[2.1.1]hexan-5-yl)-4-(3-(dimethylamino)azetidin-1-yl)-6-fluoro-7-(3-hydroxynaphthalen-1-yl)-2-(2-(pyrimidin-2-yl)ethyl)-1H-imidazo[4,5-c]quinolin-8-yl)propanenitrile], for which the IC50 on KRAS G12V and on KRAS G12D was at most 0.1 µM throughout.
For the molecule `CN(C)C1CN(c2nc3c(F)c(-c4cc(O)cc5ccccc45)c(CCC#N)cc3c3c2nc(-c2ccc4[nH]ncc4c2)n3C2C3CNC2C3)C1` (single isomer, unassigned) [Example 38a], the half-maximal inhibitory concentration (IC50) at KRAS G12V was at most 0.1 µM; on KRAS G12D it was 0.1 to 1 µM.
`CC(=O)N1CC[C@H](n2cnc3c(O[C@@H](C)[C@@H]4CCCN4C)nc4c(F)c(-c5cccc6cccc(C#N)c56)c(Cl)cc4c32)C[C@H]1CC#N` (single isomer, unassigned) [Example 39b]: the half-inhibitory concentration (IC50) at KRAS G12V and at KRAS G12D was at most 0.1 µM in each case. The “potency of isolated peak relative to the other diastereomer” value in the test with KRAS is listed as “potent peak”.
As to `CN(C)C(=O)CCc1nc2c(N3CC(N(C)C)C3)nc3c(F)c(-c4c(O)ccc(Cl)c4Cl)c(CCC#N)cc3c2n1C1C2CNC1C2` (centres unmarked) [Example 10, 3-(1-(2-azabicyclo[2.1.1]hexan-5-yl)-8-(2-cyanoethyl)-7-(2,3-dichloro-6-hydroxyphenyl)-4-(3-(dimethylamino)azetidin-1-yl)-6-fluoro-1H-imidazo[4,5-c]quinolin-2-yl)-N,N-dimethylpropanamide], the IC50 at KRAS G12V was 0.1 to 1 µM; at KRAS G12D, at most 0.1 µM.
Consider `CN(C)C(=O)CCc1nc2c(N3CC(N(C)C)C3)nc3c(F)c(-c4cc(O)cc(Cl)c4C4CC4)ccc3c2n1C1C2CNC1C2` (centres unmarked) [Example 11, 3-(1-(2-azabicyclo[2.1.1]hexan-5-yl)-7-(3-chloro-2-cyclopropyl-5-hydroxyphenyl)-4-(3-(dimethylamino)azetidin-1-yl)-6-fluoro-1H-imidazo[4,5-c]quinolin-2-yl)-N,N-dimethylpropanamide], for which the IC50 on KRAS G12V is 1 to 5 µM; at KRAS G12D, at most 0.1 µM.
As to `CN(C)C(=O)CCc1nc2c(N3CC(N(C)C)C3)nc3c(-c4cnn(-c5ccccn5)c4)c(-c4cc(O)cc5ccccc45)c(CCC#N)cc3c2n1C1C2CNC1C2` (stereo not drawn) [Example 13, 3-(1-((endo)-2-azabicyclo[2.1.1]hexan-5-yl)-8-(2-cyanoethyl)-4-(3-(dimethylamino)azetidin-1-yl)-7-(3-hydroxynaphthalen-1-yl)-6-(1-(pyridin-2-yl)-1H-pyrazol-4-yl)-1H-imidazo[4,5-c]quinolin-2-yl)-N,N-dimethylpropanamide], the figures for the IC50 at KRAS G12V and at KRAS G12D were 5 to 10 µM and 0.1 to 1 µM, respectively.
The like results for `CN(C)C(=O)CCc1nc2c(N3CC(N(C)C)C3)nc3c(F)c(-c4cc(O)cc5ccccc45)cc(CN4CCC(C#N)C4)c3c2n1C1C2CNC1C2` (stereo not drawn) [Example 16, 3-(1-((endo)2-azabicyclo[2.1.1]hexan-5-yl)-9-((3-cyanopyrrolidin-1-yl)methyl)-4-(3-(dimethylamino)azetidin-1-yl)-6-fluoro-7-(3-hydroxynaphthalen-1-yl)-1H-imidazo[4,5-c]quinolin-2-yl)-N,N-dimethylpropanamide] were, in that order, 5 to 10 µM and 0.1 to 1 µM.
In the case of `CCc1nc2c(OC[C@@]34CCCN3C[C@H](F)C4)nc3c(F)c(-c4c[nH]c5ccc(C)cc45)c(CCC#N)cc3c2n1C1C2CNC1C2` (stereo partly drawn) [Example 28, 3-(1-(2-azabicyclo[2.1.1]hexan-5-yl)-2-ethyl-6-fluoro-4-(((2R,7aS)-2-fluorotetrahydro-1H-pyrrolizin-7a(5H)-yl)methoxy)-7-(5-methyl-1H-indol-3-yl)-1H-imidazo[4,5-c]quinolin-8-yl)propanenitrile], the IC50 on KRAS G12V is 0.1 to 1 µM; at KRAS G12D it was at most 0.1 µM.
On the same counts, the results for `C[C@H](Oc1nc2c(F)c(-c3cccc4cccc(C#N)c34)c(Cl)cc2c2c1ncn2[C@H]1CCN(C(=O)CC#N)[C@H](CC#N)C1)[C@@H]1CCCN1C` [Example 40, 8-(8-chloro-1-((2S,4S)-1-(2-cyanoacetyl)-2-(cyanomethyl)piperidin-4-yl)-6-fluoro-4-((S)-1-((S)-1-methylpyrrolidin-2-yl)ethoxy)-1H-imidazo[4,5-c]quinolin-7-yl)-1-naphthonitrile] are at most 0.1 µM and at most 0.1 µM.
On the same counts, the results for `C[C@H](Oc1nc2c(F)c(-c3cccc4cccc(C#N)c34)c(Cl)cc2c2c1ncn2[C@H]1CCN(C(=O)c2nc[nH]n2)[C@H](CC#N)C1)[C@@H]1CCCN1C` [Example 41, 8-(8-chloro-1-((2S,4S)-2-(cyanomethyl)-1-(1H-1,2,4-triazole-3-carbonyl)piperidin-4-yl)-6-fluoro-4-((S)-1-((S)-1-methylpyrrolidin-2-yl)ethoxy)-1H-imidazo[4,5-c]quinolin-7-yl)-1-naphthonitrile] are at most 0.1 µM and 0.1 to 1 µM.
As to `C[C@H](Oc1nc2c(F)c(-c3cccc4cccc(C#N)c34)c(Cl)cc2c2c1ncn2[C@H]1CCN(C(N)=O)[C@H](CC#N)C1)[C@@H]1CCCN1C` [Example 42, (2S,4S)-4-(8-chloro-7-(8-cyanonaphthalen-1-yl)-6-fluoro-4-((S)-1-((S)-1-methylpyrrolidin-2-yl)ethoxy)-1H-imidazo[4,5-c]quinolin-1-yl)-2-(cyanomethyl)piperidine-1-carboxamide], the IC50 on KRAS G12V and at KRAS G12D was at most 0.1 µM throughout.
In the case of `C[C@H](Oc1nc2c(F)c(-c3cccc4cccc(C#N)c34)c(Cl)cc2c2c1ncn2[C@H]1CCN(C(=O)C2CC2)[C@H](CC#N)C1)[C@@H]1CCCN1C` [Example 43, 8-(8-chloro-1-((2S,4S)-2-(cyanomethyl)-1-(cyclopropanecarbonyl)piperidin-4-yl)-6-fluoro-4-((S)-1-((S)-1-methylpyrrolidin-2-yl)ethoxy)-1H-imidazo[4,5-c]quinolin-7-yl)-1-naphthonitrile], the figures for the IC50 at KRAS G12V and at KRAS G12D were 0.1 to 1 µM and at most 0.1 µM, respectively.
Turning to `CC(=O)N1CC[C@H](n2nnc3c(O[C@@H](C)[C@@H]4CCCN4C)nc4c(F)c(-c5cccc6cccc(C#N)c56)c(Cl)cc4c32)C[C@H]1CC#N` [Example 44, 8-(1-((2S,4S)-1-acetyl-2-(cyanomethyl)piperidin-4-yl)-8-chloro-6-fluoro-4-((S)-1-((S)-1-methylpyrrolidin-2-yl)ethoxy)-1H-[1,2,3]triazolo[4,5-c]quinolin-7-yl)-1-naphthonitrile], the IC50 on KRAS G12V and on KRAS G12D was at most 0.1 µM in each case.
As to `CC(=O)N1CC[C@H](n2c(=O)[nH]c3c(O[C@@H](C)[C@@H]4CCCN4C)nc4c(F)c(-c5cccc6cccc(C#N)c56)c(Cl)cc4c32)C[C@H]1CC#N` [Example 45, 8-(1-((2S,4S)-1-acetyl-2-(cyanomethyl)piperidin-4-yl)-8-chloro-6-fluoro-4-((S)-1-((S)-1-methylpyrrolidin-2-yl)ethoxy)-2-oxo-2,3-dihydro-1H-imidazo[4,5-c]quinolin-7-yl)-1-naphthonitrile], the IC50 was at most 0.1 µM on KRAS G12V and 0.1 to 1 µM at KRAS G12D.
